{"source": "patent US20240398830A1", "about": "“COMPOSITIONS AND USES THEREOF FOR TREATMENT OF NEUROLOGICAL DISORDERS” (UNIVERSITY OF SOUTH FLORIDA, priority 2021, published 2024)", "type_in_all_cases": "cell-based", "key": {"FKBP51 [1]": {"test_system": "FKBP51", "test": "Immunoblot analysis of dexamethasone induced FKBP51 levels in H4 human neuroglioma cell line", "conditions": "10 μM compound, dexamethasone containing media, 24 h, immunoblot (FIG. 1)", "protocol": "FIGS. 1A-1B show qPCR (FIG. 1A) and immunoblot analysis (FIG. 1B) of FKBP51 levels in cultures of H4 human neuroglioma cell line treated with methyl acetate vehicle (MeOAc) or ethanol vehicle (ETOH) or 10 μM 15-deoxy-12,14-prostaglandin J2 (J2) or 10 μM 9-nitro oleic acid (9N), or 10 μM 10-nitro oleic acid (ION) in control (dimethyl sulfoxide; DMSO) or dexamethasone (Dex) containing media for 6 h and 24 h. Cultures incubated with treatments for 6 h were used for RNA analysis whereas cultures incubated with treatments for 24 h were used for protein analysis. Bars represent mean±SEM; n=3 independent experiments."}, "[2]": {"test_system": "glucocorticoid receptor response element (GRE)", "test": "GRE reporter luciferase assay in dexamethasone treated HeLa cells", "conditions": "dexamethasone treated HeLa cells transfected with empty vector or FKBP51 vector (FIG. 3)"}, "FKBP51 [3]": {"test_system": "FKBP51", "test": "Immunoblot analysis of dexamethasone induced FKBP51 levels in HT-22 mouse hippocampal neuronal cell line", "conditions": "20 μM compound, 500 nM dexamethasone, immunoblot (FIG. 2)"}}}
{"smiles": "CCCCCCCC/C(=C\\CCCCCCCC(=O)O)[N+](=O)[O-]", "note": "[10-nitro oleic acid, 10-nitro-9E-octadecenoic acid]", "values": [{"measurement": "dexamethasone induced FKBP51 protein levels", "setting": "FKBP51 [1]", "value": "inhibit dexamethasone induced FKBP51 protein levels"}, {"measurement": "glucocorticoid receptor response (GRE reporter luciferase)", "setting": "[2]", "value": "alter glucocorticoid receptor response"}, {"measurement": "dexamethasone induced FKBP51 protein levels", "setting": "FKBP51 [3]", "value": "inhibit dexamethasone induced FKBP51 protein levels"}]}
{"smiles": "CCCCCCCC/C=C(\\CCCCCCCC(=O)O)[N+](=O)[O-]", "note": "[9-nitro oleic acid, 9-nitro-9E-octadecenoic acid]", "values": [{"measurement": "dexamethasone induced FKBP51 protein levels", "setting": "FKBP51 [1]", "value": "inhibit dexamethasone induced FKBP51 protein levels"}, {"measurement": "glucocorticoid receptor response (GRE reporter luciferase)", "setting": "[2]", "value": "alter glucocorticoid receptor response"}, {"measurement": "dexamethasone induced FKBP51 protein levels", "setting": "FKBP51 [3]", "value": "inhibit dexamethasone induced FKBP51 protein levels"}]}
{"smiles": "CCCCC/C=C/C=C1/C(=O)C=C[C@@H]1C/C=C\\CCCC(=O)O", "note": "[15-deoxy-12,14-prostaglandin J2, 15-deoxy-Δ12,14-prostaglandin J2]", "values": [{"measurement": "dexamethasone induced FKBP51 protein levels", "setting": "FKBP51 [1]", "value": "inhibit dexamethasone induced FKBP51 protein levels"}, {"measurement": "glucocorticoid receptor response (GRE reporter luciferase)", "setting": "[2]", "value": "alter glucocorticoid receptor response"}, {"measurement": "dexamethasone induced FKBP51 protein levels", "setting": "FKBP51 [3]", "value": "inhibit dexamethasone induced FKBP51 protein levels"}]}
